The text below walks through data of patent US8637510B2, “Morpholinothiazoles as alpha 7 positive allosteric modulators” (Janssen Pharmaceutica NV, priority 2009, dated 2014).

The target of data set [1] is T1, human alpha 7-wt nAChR (Homo sapiens, UniProt P36544).
T1 construct: expressed in transfected cells
The data set can be described thus: Ca2+ flux imaging (FDSS) (Protocol B). Conditions: for Emax: efficacy of 100 μM choline defined as 100% in the absence of a PAM, read-out: a7-PAM-G_[33]_Eff_Curve_FI % Efficacy; for EC50: potentiation of 100 μM choline, compounds 0.01 μM to 30 μM, read-out: a7-PAM-G_[33]_pEC50 pEC50 (converted). Type of data set: cell-based. In a few lines:
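PAM activity was measured as FDSS calcium fluorescence in α7-wt nAChR cells loaded with 2 μM Fluo-4AM, with compounds at 0.01–30 μM added alongside or 10 min ahead of sub-maximal 100 μM choline. Peak responses were normalised to choline-only efficacy, and EC50 was taken at half-maximal effect.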

T1 sequence (P36544 23-502): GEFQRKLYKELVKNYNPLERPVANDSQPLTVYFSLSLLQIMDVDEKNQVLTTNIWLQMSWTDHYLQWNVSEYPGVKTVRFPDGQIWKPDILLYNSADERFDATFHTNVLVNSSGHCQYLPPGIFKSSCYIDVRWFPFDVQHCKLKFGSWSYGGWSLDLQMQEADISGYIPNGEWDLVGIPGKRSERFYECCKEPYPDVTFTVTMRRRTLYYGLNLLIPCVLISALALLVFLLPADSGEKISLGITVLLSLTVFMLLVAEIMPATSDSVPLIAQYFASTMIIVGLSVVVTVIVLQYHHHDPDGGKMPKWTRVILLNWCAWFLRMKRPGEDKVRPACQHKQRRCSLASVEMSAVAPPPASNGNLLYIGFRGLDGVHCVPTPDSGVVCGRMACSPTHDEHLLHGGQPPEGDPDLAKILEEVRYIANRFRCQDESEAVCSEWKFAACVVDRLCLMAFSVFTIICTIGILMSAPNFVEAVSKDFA

Take `Cc1cc(-c2sc(N3C[C@@H](C)O[C@@H](C)C3)nc2CNC(=O)CC(C)C)cc(C)n1` [Compound 42, N-[[2-[(2R,6S)-2,6-dimethyl-4-morpholinyl]-5-(2,6-dimethyl-4-pyridinyl)-4-thiazolyl]methyl]-3-methyl-butanamide]: the melting point was determined as 184 °C. Moreover, in data set [1], the Emax stood at 827% and the EC50 was 10.5 nM.

For `Cc1ccc(-c2sc(N3C[C@@H](C)O[C@@H](C)C3)nc2CNC(=O)c2ccccc2Cl)cn1` [Compound 121, 2-chloro-N-[[2-[(2R,6S)-2,6-dimethyl-4-morpholinyl]-5-(6-methyl-3-pyridinyl)-4-thiazolyl]methyl]-benzamide], the melting point stood at 152 °C. For the same molecule, in data set [1], the Emax is 356% and the EC50 is 2040 nM.

Turning to `Cc1cc(-c2sc(N3CCOC[C@@H]3C)nc2CNC(=O)c2ccc(F)cc2C)cc(C)n1` [Compound 184, N-[[5-(2,6-dimethyl-4-pyridinyl)-2-[(3S)-3-methyl-4-morpholinyl]-4-thiazolyl]methyl]-4-fluoro-2-methyl-benzamide], the melting point was 156 °C. In data set [1], the Emax came out at 974% and the EC50 is 562 nM.

As to `Cc1cc(-c2sc(N3C[C@@H](C)O[C@@H](C)C3)nc2CNC(=O)c2cccc(C(F)(F)F)c2)cc(C)n1` [Compound 44, N-[[2-[(2R,6S)-2,6-dimethyl-4-morpholinyl]-5-(2,6-dimethyl-4-pyridinyl)-4-thiazolyl]methyl]-3-(trifluoromethyl)-benzamide], the melting point was 180 °C. In data set [1], the Emax came out at 607% and the EC50 was 282 nM.

In turn, `Cc1cc(-c2sc(N3C[C@@H](C)O[C@@H](C)C3)nc2CNC(=O)c2ccc(F)c(F)c2C)cc(C)n1` [Compound 38, N-[[2-[(2R,6S)-2,6-dimethyl-4-morpholinyl]-5-(2,6-dimethyl-4-pyridinyl)-4-thiazolyl]methyl]-3,4-difluoro-2-methyl-benzamide] yielded a melting point of 187 °C. Moreover, the EC50 in data set [1] is 5.5 nM.

`Cc1cc(-c2sc(N3C[C@@H](C)O[C@@H](C)C3)nc2CNC(=O)c2onc(C)c2C)cc(C)n1` [Compound 171, N-[[2-[(2R,6S)-2,6-dimethyl-4-morpholinyl]-5-(2,6-dimethyl-4-pyridinyl)-4-thiazolyl]methyl]-3,4-dimethyl-5-isoxazolecarboxamide] registered a melting point of 192 °C. In data set [1], the Emax came to 669% and the EC50 was 1620 nM.

The molecule `Cc1cc(-c2sc(N3C[C@@H](C)O[C@@H](C)C3)nc2CNC(=O)c2nn(C)cc2C)cc(C)n1` [Compound 172, N-[[2-[(2R,6S)-2,6-dimethyl-4-morpholinyl]-5-(2,6-dimethyl-4-pyridinyl)-4-thiazolyl]methyl]-1,4-dimethyl-1H-pyrazole-3-carboxamide] returned a melting point of 165 °C. For the same molecule, in data set [1], the Emax was determined as 292% and the EC50 is 2630 nM.

The molecule `Cc1cc(-c2sc(N3C[C@@H](C)O[C@@H](C)C3)nc2CNC(=O)CC2CC2)c(C)cn1` [Compound 97, N-[[2-[(2R,6S)-2,6-dimethyl-4-morpholinyl]-5-(2,5-dimethyl-4-pyridinyl)-4-thiazolyl]methyl]-cyclopropaneacetamide] showed a melting point of 138 °C. Further, in data set [1], the Emax is 424% and the EC50 is 3020 nM.

As to `Cc1cc(-c2sc(N3C[C@@H](C)O[C@@H](C)C3)nc2CNC(=O)c2ccc(F)cc2)ccn1` [Compound 94, N-[[2-[(2R,6S)-2,6-dimethyl-4-morpholinyl]-5-(2-methyl-4-pyridinyl)-4-thiazolyl]methyl]-4-fluoro-benzamide], the melting point was found to be 225 °C. In data set [1], the Emax came to 420% and the EC50 is 479 nM.

`Cc1cc(-c2sc(N3CC4CCC(C3)O4)nc2CNC(=O)c2cc(C)on2)cc(C)n1` [Compound 210, N-[[5-(2,6-dimethyl-4-pyridinyl)-2-(8-oxa-3-azabicyclo[3.2.1]oct-3-y1)-4-thiazolyl]methyl]-5-methyl-3-isoxazolecarboxamide] returned a melting point of 206 °C. In data set [1], the Emax came to 632% and the EC50 was 3980 nM.

In the case of `Cc1cc(-c2sc(N3C[C@@H](C)O[C@@H](C)C3)nc2CNC(=O)c2sccc2C)cc(C)n1` [Compound 150, N-[[2-[(2R,6S)-2,6-dimethyl-4-morpholinyl]-5-(2,6-dimethyl-4-pyridinyl)-4-thiazolyl]methyl]-3-methyl-2-thiophenecarboxamide], the melting point turned out to be 184 °C. Moreover, in data set [1], the Emax was 894% and the EC50 was 427 nM.

Take `Cc1cc(-c2sc(N3C[C@@H](C)O[C@@H](C)C3)nc2CNC(=O)c2occc2C)cc(C)n1` [Compound 147, N-[[2-[(2R,6S)-2,6-dimethyl-4-morpholinyl]-5-(2,6-dimethyl-4-pyridinyl)-4-thiazolyl]methyl]-3-methyl-2-furancarboxamide]: the melting point is 149 °C. The EC50 in data set [1] was 912 nM.

In turn, `O=C(CC1CC1)NCc1nc(N2CCOCC2)sc1-c1ccncc1` [Compound 112, N-[[2-(4-morpholinyl)-5-(4-pyridinyl)-4-thiazolyl]methyl]-cyclopropaneacetamide] displayed a melting point of 135 °C. The Emax in data set [1] amounted to 525%.

As for `Cc1cc(-c2sc(N3CCOCC3)nc2CNC(=O)c2ccc(F)cc2C)cc(C)n1` [Compound 80, N-[[5-(2,6-dimethyl-4-pyridinyl)-2-(4-morpholinyl)-4-thiazolyl]methyl]-4-fluoro-2-methyl-benzamide], the melting point was 221 °C. Also, in data set [1], the Emax was found to be 902% and the EC50 is 661 nM.

In turn, `Cc1cc(-c2sc(N3C[C@@H](C)O[C@@H](C)C3)nc2CNC(=O)c2ccc(Cl)c(Cl)c2)cc(C)n1` [Compound 35, 3,4-dichloro-N-[[2-[(2R,6S)-2,6-dimethyl-4-morpholinyl]-5-(2,6-dimethyl-4-pyridinyl)-4-thiazolyl]methyl]-benzamide] came in with a melting point of 185 °C. In data set [1], the Emax turned out to be 599% and the EC50 was 132 nM.

On to `Cc1cc(-c2sc(N3C[C@@H](C)O[C@@H](C)C3)nc2CNC(=O)c2cc(C)on2)c(C)cn1` [Compound 98, N-[[2-[(2R,6S)-2,6-dimethyl-4-morpholinyl]-5-(2,5-dimethyl-4-pyridinyl)-4-thiazolyl]methyl]-5-methyl-3-isoxazolecarboxamide], for which the melting point worked out at 155 °C. The EC50 in data set [1] is 4070 nM.

Consider `Cc1cc(-c2sc(N3CCOC[C@@H]3C)nc2CNC(=O)CC(C)C)cc(C)n1` [Compound 189, N-[[5-(2,6-dimethyl-4-pyridinyl)-2-[(3S)-3-methyl-4-morpholinyl]-4-thiazolyl]methyl]-3-methyl-butanamide], for which the melting point was 151 °C. The EC50 in data set [1] was 1510 nM.

Consider `Cc1cc(C(=O)NCc2nc(N3C[C@@H](C)O[C@@H](C)C3)sc2-c2ccncc2)no1` [Compound 100, N-[[2-[(2R,6S)-2,6-dimethyl-4-morpholinyl]-5-(4-pyridinyl)-4-thiazolyl]methyl]-5-methyl-3-isoxazolecarboxamide], for which the melting point was determined as 182 °C. Besides, in data set [1], the EC50 is 1820 nM.

`Cc1nocc1C(=O)NCc1nc(N2CCOCC2)sc1-c1ccncc1` [Compound 114, 3-methyl-N-[[2-(4-morpholinyl)-5-(4-pyridinyl)-4-thiazolyl]methyl]-4-isoxazolecarboxamide]: the melting point came to 234 °C. Moreover, in data set [1], the Emax was determined as 313%.

In turn, `Cc1cc(-c2sc(N3CC(C)OC(C(F)(F)F)C3)nc2CNC(=O)CC2CC2)cc(C)n1` (single isomer, unassigned) [Compound 133, N-[[5-(2,6-dimethyl-4-pyridinyl)-2-[2-methyl-6-(trifluoromethyl)-4-morpholinyl]-4-thiazolyl]methyl]-cyclopropaneacetamide] yielded a melting point of 156 °C. In addition, in data set [1], the EC50 was 115 nM.

Regarding `Cc1cc(-c2sc(N3C[C@@H](C)O[C@@H](C)C3)nc2CNC(=O)c2csc(C)c2C)cc(C)n1` [Compound 164, N-[[2-[(2R,6S)-2,6-dimethyl-4-morpholinyl]-5-(2,6-dimethyl-4-pyridinyl)-4-thiazolyl]methyl]-4,5-dimethyl-3-thiophenecarboxamide], the melting point was found to be 200 °C. Besides, the EC50 in data set [1] is 166 nM.

Regarding `Cc1cc(-c2sc(N3CC(C)OC(C)C3)nc2CNC(=O)c2ccc(Cl)cc2)cc(C)n1` (racemic) [Compound 58, 4-chloro-N-[[2-[2,6-dimethyl-4-morpholinyl]-5-(2,6-dimethyl-4-pyridinyl)-4-thiazolyl]methyl]-benzamide], the melting point is 184 °C. In addition, the EC50 in data set [1] was 295 nM.

With `Cc1cc(C(=O)NCc2nc(N3CCOC(C)C3)sc2-c2cc(C)nc(C)c2)on1` (single isomer, unassigned) [Compound 72, N-[[5-(2,6-dimethyl-4-pyridinyl)-2-[(2S*)-2-methyl-4-morpholinyl]-4-thiazolyl]methyl]-3-methyl-5-isoxazolecarboxamide], the melting point came to 138 °C. In data set [1], the EC50 is 2000 nM.

Consider `Cc1cc(-c2sc(N3CCOCC3)nc2CNC(=O)C2CCC2)cc(C)n1` [Compound 65, N-[[5-(2,6-dimethyl-4-pyridinyl)-2-(4-morpholinyl)-4-thiazolyl]methyl]-cyclobutanecarboxamide], for which the melting point was found to be 188 °C. For the same molecule, the EC50 in data set [1] is 3240 nM.
